Values joined by “and” are separate entries in the source; they are usually repeats but may differ in a detail not shown here. Identical values can stand only once.
Test: xn = mol fraction of the nth substance listed

OCCCCO + O
viscosity
Conditions	298.15 K	303.15 K	308.15 K	313.15 K	318.15 K	323.15 K
101 kPa, x1 = 0.0099	–	0.933 mPa·s	0.836 mPa·s	0.755 mPa·s	0.687 mPa·s	0.63 mPa·s
101 kPa, x1 = 0.0201	–	1.09 mPa·s	0.971 mPa·s	0.871 mPa·s	0.788 mPa·s	0.718 mPa·s
101 kPa, x1 = 0.0299	–	1.256 mPa·s	–	0.989 mPa·s	0.89 mPa·s	0.806 mPa·s
101 kPa, x1 = 0.0399	–	1.429 mPa·s	1.256 mPa·s	1.113 mPa·s	0.998 mPa·s	0.899 mPa·s
101 kPa, x1 = 0.05	1.94 mPa·s	1.625 mPa·s	1.48 mPa·s and 1.424 mPa·s	1.258 mPa·s	1.14 mPa·s and 1.12 mPa·s	1.004 mPa·s
101 kPa, x1 = 0.0599	–	1.838 mPa·s	1.595 mPa·s	1.4 mPa·s	1.243 mPa·s	1.11 mPa·s
101 kPa, x1 = 0.0699	–	2.057 mPa·s	1.781 mPa·s	1.559 mPa·s	1.376 mPa·s	–
101 kPa, x1 = 0.075	2.65 mPa·s	–	1.93 mPa·s	–	1.44 mPa·s	–
101 kPa, x1 = 0.08	–	2.298 mPa·s	1.982 mPa·s	1.724 mPa·s	1.518 mPa·s	1.347 mPa·s
101 kPa, x1 = 0.0901	–	2.553 mPa·s	2.192 mPa·s	1.901 mPa·s	1.666 mPa·s	1.472 mPa·s
101 kPa, x1 = 0.1	3.397 mPa·s	2.818 mPa·s and 2.803 mPa·s	2.44 mPa·s and 2.404 mPa·s and 2.514 mPa·s	2.079 mPa·s	1.84 mPa·s and 1.817 mPa·s	1.602 mPa·s
101 kPa, x1 = 0.15	5.39 mPa·s	–	3.78 mPa·s	–	2.68 mPa·s	–
101 kPa, x1 = 0.2	7.88 mPa·s	–	5.24 mPa·s	–	3.72 mPa·s	–
101 kPa, x1 = 0.2001	9.496 mPa·s	7.867 mPa·s	–	–	–	–
101 kPa, x1 = 0.3007	13.82 mPa·s	11.16 mPa·s	9.319 mPa·s	–	–	–
101 kPa, x1 = 0.4	21.4 mPa·s	–	–	–	9.25 mPa·s	–
101 kPa, x1 = 0.4006	21 mPa·s	16.91 mPa·s	13.99 mPa·s	–	–	–
101 kPa, x1 = 0.4977	29.42 mPa·s	23.41 mPa·s	19.16 mPa·s	–	–	–
101 kPa, x1 = 0.6	41.4 mPa·s	–	25 mPa·s	–	16.2 mPa·s	–
101 kPa, x1 = 0.6002	38.85 mPa·s	30.89 mPa·s	25.12 mPa·s	–	–	–
101 kPa, x1 = 0.6982	47.66 mPa·s	38.2 mPa·s	30.3 mPa·s	–	–	–
101 kPa, x1 = 0.7993	56.65 mPa·s	44.81 mPa·s	36.18 mPa·s	–	–	–
101 kPa, x1 = 0.8	60.5 mPa·s	–	36.9 mPa·s	–	23.8 mPa·s	–
101 kPa, x1 = 0.8969	63.9 mPa·s	48.65 mPa·s	–	–	–	–
101 kPa, x1 = 0.9	68.4 mPa·s	–	40.3 mPa·s	–	27.1 mPa·s	–
101.3 kPa, x1 = 0.7917	–	–	–	29.65 mPa·s	–	–
101.3 kPa, x2 = 0.4531	33.95 mPa·s	–	–	–	–	–
101.3 kPa, x2 = 0.6513	18.65 mPa·s	–	–	–	–	–

O=C1CCCN1 + O
Conditions	viscosity [mPa·s]
298.15 K, 100 kPa, x1 = 0.0115	1.015
298.15 K, 100 kPa, x1 = 0.0189	1.099
298.15 K, 100 kPa, x1 = 0.0287	1.211
298.15 K, 100 kPa, x1 = 0.0388	1.328
298.15 K, 100 kPa, x1 = 0.0505	1.472
298.15 K, 100 kPa, x1 = 0.0598	1.591
298.15 K, 100 kPa, x1 = 0.0698	1.725
298.15 K, 100 kPa, x1 = 0.0803	1.875
298.15 K, 100 kPa, x1 = 0.0898	2.013
298.15 K, 100 kPa, x1 = 0.1007	2.241
298.15 K, 100 kPa, x1 = 0.1507	3.167
298.15 K, 100 kPa, x1 = 0.2024	4.25
298.15 K, 100 kPa, x1 = 0.2554	5.425
298.15 K, 100 kPa, x1 = 0.3052	6.531
298.15 K, 100 kPa, x1 = 0.3568	7.599
298.15 K, 100 kPa, x1 = 0.4091	8.579
298.15 K, 100 kPa, x1 = 0.4579	9.388
298.15 K, 100 kPa, x1 = 0.5569	10.69
298.15 K, 100 kPa, x1 = 0.6612	11.65
298.15 K, 100 kPa, x1 = 0.7216	12.08
298.15 K, 100 kPa, x1 = 0.8231	12.63
298.15 K, 100 kPa, x1 = 0.8637	12.82
298.15 K, 100 kPa, x1 = 0.9213	13.08
298.15 K, 100 kPa, x1 = 0.9301	13.11
298.15 K, 100 kPa, x1 = 0.9395	13.16
298.15 K, 100 kPa, x1 = 0.9491	13.18
298.15 K, 100 kPa, x1 = 0.9588	13.21
298.15 K, 100 kPa, x1 = 0.969	13.22
298.15 K, 100 kPa, x2 = 0.0105	13.3
304.15 K, 101.33 kPa, x2 = 0.1162	10.05
304.15 K, 101.33 kPa, x2 = 0.1885	9.771
304.15 K, 101.33 kPa, x2 = 0.2962	9.28
304.15 K, 101.33 kPa, x2 = 0.407	8.553
304.15 K, 101.33 kPa, x2 = 0.5061	7.697
304.15 K, 101.33 kPa, x2 = 0.5975	6.611
304.15 K, 101.33 kPa, x2 = 0.6831	5.353
304.15 K, 101.33 kPa, x2 = 0.8066	3.322
304.15 K, 101.33 kPa, x2 = 0.9019	1.885
308.15 K, 101 kPa, x1 = 0.0921	1.572
308.15 K, 101 kPa, x1 = 0.1915	2.467
308.15 K, 101 kPa, x1 = 0.315	3.573
308.15 K, 101 kPa, x1 = 0.4027	4.339
308.15 K, 101 kPa, x1 = 0.519	5.43
308.15 K, 101 kPa, x1 = 0.5927	6.176
308.15 K, 101 kPa, x1 = 0.6947	6.828
308.15 K, 101 kPa, x1 = 0.7877	7.493
308.15 K, 101 kPa, x1 = 0.9207	8.425
308.15 K, 101.33 kPa, x2 = 0.1162	8.702
308.15 K, 101.33 kPa, x2 = 0.1885	8.419
308.15 K, 101.33 kPa, x2 = 0.2962	7.958
308.15 K, 101.33 kPa, x2 = 0.407	7.333
308.15 K, 101.33 kPa, x2 = 0.5061	6.591
308.15 K, 101.33 kPa, x2 = 0.5975	5.665
308.15 K, 101.33 kPa, x2 = 0.6831	4.612
308.15 K, 101.33 kPa, x2 = 0.8066	2.917
308.15 K, 101.33 kPa, x2 = 0.9019	1.69
313.15 K, 101 kPa, x1 = 0.0803	1.274
313.15 K, 101 kPa, x1 = 0.1598	2.074
313.15 K, 101 kPa, x1 = 0.2476	3.053
313.15 K, 101 kPa, x1 = 0.3087	3.73
313.15 K, 101 kPa, x1 = 0.4	4.641
313.15 K, 101 kPa, x1 = 0.4668	5.207
313.15 K, 101 kPa, x1 = 0.5478	5.763
313.15 K, 101 kPa, x1 = 0.6434	6.298
313.15 K, 101 kPa, x1 = 0.7195	6.627
313.15 K, 101 kPa, x1 = 0.7991	6.924
313.15 K, 101 kPa, x1 = 0.8781	7.184
313.15 K, 101 kPa, x1 = 0.9585	7.432
313.15 K, 101.33 kPa, x2 = 0.1162	7.3
313.15 K, 101.33 kPa, x2 = 0.1885	7.066
313.15 K, 101.33 kPa, x2 = 0.2962	6.647
313.15 K, 101.33 kPa, x2 = 0.407	6.111
313.15 K, 101.33 kPa, x2 = 0.5061	5.506
313.15 K, 101.33 kPa, x2 = 0.5975	4.74
313.15 K, 101.33 kPa, x2 = 0.6831	3.873
313.15 K, 101.33 kPa, x2 = 0.8066	2.495
313.15 K, 101.33 kPa, x2 = 0.9019	1.483
318.15 K, 101.33 kPa, x2 = 0.1162	6.211
318.15 K, 101.33 kPa, x2 = 0.1885	5.985
318.15 K, 101.33 kPa, x2 = 0.2962	5.641
318.15 K, 101.33 kPa, x2 = 0.407	5.164
318.15 K, 101.33 kPa, x2 = 0.5061	4.656
318.15 K, 101.33 kPa, x2 = 0.5975	4.004
318.15 K, 101.33 kPa, x2 = 0.6831	3.308
318.15 K, 101.33 kPa, x2 = 0.8066	2.165
318.15 K, 101.33 kPa, x2 = 0.9019	1.313
323.15 K, 101.33 kPa, x2 = 0.1162	5.336
323.15 K, 101.33 kPa, x2 = 0.1885	5.14
323.15 K, 101.33 kPa, x2 = 0.2962	4.823
323.15 K, 101.33 kPa, x2 = 0.407	4.414
323.15 K, 101.33 kPa, x2 = 0.5061	3.987
323.15 K, 101.33 kPa, x2 = 0.5975	3.433
323.15 K, 101.33 kPa, x2 = 0.6831	2.845
323.15 K, 101.33 kPa, x2 = 0.8066	1.901
323.15 K, 101.33 kPa, x2 = 0.9019	1.173

Source: the CheMixHub viscosity set
